Consider 6 molecules from ChEMBL document CHEMBL1201862, “PubChem BioAssay data set” (2004).

One experiment deals with INS1. Kind of experiment: beta cell apoptosis inhibitors, cytokine rescue, dose response, luminescence, retest (AID 449756).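 Also: cell death triggered by IL-1 beta plus TNF-alpha plus IFN-gamma mixture; protective hits raise ATP signal compared with cytokine alone wells.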 It is filed as functional, cell-based. The following applies: Rattus norvegicus.
In experiment [1] the target is T1, Tyrosine-protein phosphatase non-receptor type 7 (Homo sapiens, UniProt P35236).
T1 sequence (P35236 whole entry): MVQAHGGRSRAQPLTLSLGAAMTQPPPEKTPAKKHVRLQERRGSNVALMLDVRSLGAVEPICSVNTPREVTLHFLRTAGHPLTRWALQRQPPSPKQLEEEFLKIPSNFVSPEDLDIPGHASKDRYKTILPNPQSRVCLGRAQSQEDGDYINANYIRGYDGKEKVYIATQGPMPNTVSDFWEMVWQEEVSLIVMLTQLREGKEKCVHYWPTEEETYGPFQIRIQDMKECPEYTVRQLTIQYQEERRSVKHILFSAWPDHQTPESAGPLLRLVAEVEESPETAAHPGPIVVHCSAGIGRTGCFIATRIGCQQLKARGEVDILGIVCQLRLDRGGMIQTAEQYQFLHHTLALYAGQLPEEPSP
It is filed as functional.

A further experiment has as its target Keap1/Nrf2 (Homo sapiens, UniProt Q14145). Kind of experiment: Keap1-Nrf2 protein-protein interaction inhibitors, dose response, biochemical, fluorescence polarization, cherry-picked samples (AID 588683). (In general: Polarisation of emitted light reports the rotation of a fluorescent probe.)
Experiment [2] concerns the target Eukaryotic translation initiation factor 4E (Mus musculus, UniProt P63073). Briefly: eIF4E–eIF4G protein interaction inhibitors, dose response, biochemical, TR-FRET (AID 855).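 Also: potency for disrupting eIF4E binding to eIF4GI seen as loss of FRET.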 It counts as functional. For orientation: Time-resolved FRET reads energy transfer from a long-lived donor to a nearby acceptor.
The target in the next experiment is T2, Protein skinhead-1 (Caenorhabditis elegans, UniProt P34707).
T2 sequence (P34707 whole entry): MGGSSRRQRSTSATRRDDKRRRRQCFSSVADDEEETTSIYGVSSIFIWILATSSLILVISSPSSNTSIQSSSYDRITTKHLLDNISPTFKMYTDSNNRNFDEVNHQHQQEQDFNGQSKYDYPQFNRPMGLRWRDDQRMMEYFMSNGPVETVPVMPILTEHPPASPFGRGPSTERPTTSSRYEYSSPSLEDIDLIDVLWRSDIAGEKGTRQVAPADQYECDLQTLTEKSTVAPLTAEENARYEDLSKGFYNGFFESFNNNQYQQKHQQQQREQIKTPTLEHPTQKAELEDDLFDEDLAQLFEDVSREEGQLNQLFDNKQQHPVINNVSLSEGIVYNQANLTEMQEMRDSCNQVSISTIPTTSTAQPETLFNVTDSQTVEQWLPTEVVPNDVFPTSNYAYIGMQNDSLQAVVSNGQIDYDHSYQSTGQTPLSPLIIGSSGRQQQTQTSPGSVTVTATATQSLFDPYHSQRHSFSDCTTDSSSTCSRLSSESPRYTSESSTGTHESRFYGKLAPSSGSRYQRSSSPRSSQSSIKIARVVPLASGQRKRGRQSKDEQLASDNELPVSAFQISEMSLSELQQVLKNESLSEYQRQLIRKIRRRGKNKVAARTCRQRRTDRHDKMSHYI
It counts as functional.

The target in experiment [3] is T3, Sentrin-specific protease 8 (Homo sapiens, UniProt Q96LD8).
T3 sequence (Q96LD8 whole entry): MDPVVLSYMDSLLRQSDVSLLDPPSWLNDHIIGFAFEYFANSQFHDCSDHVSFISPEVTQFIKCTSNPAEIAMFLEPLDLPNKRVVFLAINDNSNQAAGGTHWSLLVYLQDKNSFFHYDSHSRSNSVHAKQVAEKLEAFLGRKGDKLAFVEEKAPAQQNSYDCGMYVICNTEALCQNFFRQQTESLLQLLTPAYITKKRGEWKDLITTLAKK
It is filed as functional.

Experiment [4] in a line: cytotoxicity toward NIH3T3 fibroblasts, dose response, counter-screen, cell-based, ATP luminescence, mouse fibroblasts (AID 2010).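 Also: cells exposed to compound for about 90 hours before reading.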 It counts as functional.
The nature of experiment [5]: Counterscreen for AddAB inhibitors: absorbance-based bacterial cell-based high throughput dose response assay for inhibitors of bacterial viability. [Related pubchem assays (depositor defined):AID435030, AID449728, AID449731, AID488942, AID488955, AID488956]. It is filed as functional.
Experiment [6] deals with High affinity nerve growth factor receptor (Homo sapiens, UniProt P04629). It is filed as functional.
High affinity nerve growth factor receptor, sequence (P04629 whole entry): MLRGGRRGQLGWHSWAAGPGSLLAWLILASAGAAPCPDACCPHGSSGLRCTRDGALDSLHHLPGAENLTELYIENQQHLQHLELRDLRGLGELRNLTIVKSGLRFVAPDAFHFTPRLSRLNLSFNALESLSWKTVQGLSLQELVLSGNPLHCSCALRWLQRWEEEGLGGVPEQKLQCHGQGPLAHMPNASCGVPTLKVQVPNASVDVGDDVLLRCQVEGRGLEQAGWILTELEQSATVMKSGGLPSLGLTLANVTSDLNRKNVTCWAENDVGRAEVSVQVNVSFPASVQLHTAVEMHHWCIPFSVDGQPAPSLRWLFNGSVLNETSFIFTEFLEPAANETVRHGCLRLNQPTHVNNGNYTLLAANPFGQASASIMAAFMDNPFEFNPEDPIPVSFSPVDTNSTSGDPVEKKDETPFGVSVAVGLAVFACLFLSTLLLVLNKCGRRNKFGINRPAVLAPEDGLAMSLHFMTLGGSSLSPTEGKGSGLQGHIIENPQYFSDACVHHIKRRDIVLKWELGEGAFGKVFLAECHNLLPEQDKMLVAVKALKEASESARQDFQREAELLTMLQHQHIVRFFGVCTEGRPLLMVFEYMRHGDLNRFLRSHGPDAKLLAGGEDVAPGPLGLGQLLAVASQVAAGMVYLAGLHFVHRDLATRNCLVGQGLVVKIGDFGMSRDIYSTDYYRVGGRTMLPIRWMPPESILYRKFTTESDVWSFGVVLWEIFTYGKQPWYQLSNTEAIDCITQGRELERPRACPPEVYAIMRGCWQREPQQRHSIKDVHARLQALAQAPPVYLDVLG
Experiment [7] deals with Maternal embryonic leucine zipper kinase (Homo sapiens, UniProt Q14680). It counts as functional.
Maternal embryonic leucine zipper kinase, sequence (Q14680 whole entry): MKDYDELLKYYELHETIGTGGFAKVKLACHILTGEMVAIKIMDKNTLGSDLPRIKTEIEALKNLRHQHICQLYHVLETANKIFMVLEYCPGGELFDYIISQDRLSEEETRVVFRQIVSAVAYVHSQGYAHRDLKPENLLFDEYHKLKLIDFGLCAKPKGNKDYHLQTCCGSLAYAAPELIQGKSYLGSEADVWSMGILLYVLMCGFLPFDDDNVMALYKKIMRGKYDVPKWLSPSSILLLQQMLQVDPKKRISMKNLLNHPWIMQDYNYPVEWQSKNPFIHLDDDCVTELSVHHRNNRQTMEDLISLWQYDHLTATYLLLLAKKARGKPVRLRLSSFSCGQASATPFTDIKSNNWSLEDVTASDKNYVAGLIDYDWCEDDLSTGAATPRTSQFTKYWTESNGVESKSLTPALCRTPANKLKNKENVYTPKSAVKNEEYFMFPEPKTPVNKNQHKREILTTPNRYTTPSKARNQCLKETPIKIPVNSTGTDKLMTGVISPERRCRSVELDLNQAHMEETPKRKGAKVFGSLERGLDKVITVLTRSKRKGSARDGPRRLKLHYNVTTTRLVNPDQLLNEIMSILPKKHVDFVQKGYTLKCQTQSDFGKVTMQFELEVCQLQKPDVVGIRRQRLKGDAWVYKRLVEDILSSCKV
Experiment [8] deals with Ribosomal protein S6 kinase beta-1 (Homo sapiens, UniProt P23443). It counts as functional.
In experiment [9] the target is Serine/threonine-protein kinase DCLK1 (Homo sapiens, UniProt O15075). It is filed as functional.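 Also: affinity for DCLK1 (listed as DCAMKL1) measured as one member of a kinome-wide kinase profiling panel.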
Serine/threonine-protein kinase DCLK1, sequence (O15075 whole entry, canonical isoform): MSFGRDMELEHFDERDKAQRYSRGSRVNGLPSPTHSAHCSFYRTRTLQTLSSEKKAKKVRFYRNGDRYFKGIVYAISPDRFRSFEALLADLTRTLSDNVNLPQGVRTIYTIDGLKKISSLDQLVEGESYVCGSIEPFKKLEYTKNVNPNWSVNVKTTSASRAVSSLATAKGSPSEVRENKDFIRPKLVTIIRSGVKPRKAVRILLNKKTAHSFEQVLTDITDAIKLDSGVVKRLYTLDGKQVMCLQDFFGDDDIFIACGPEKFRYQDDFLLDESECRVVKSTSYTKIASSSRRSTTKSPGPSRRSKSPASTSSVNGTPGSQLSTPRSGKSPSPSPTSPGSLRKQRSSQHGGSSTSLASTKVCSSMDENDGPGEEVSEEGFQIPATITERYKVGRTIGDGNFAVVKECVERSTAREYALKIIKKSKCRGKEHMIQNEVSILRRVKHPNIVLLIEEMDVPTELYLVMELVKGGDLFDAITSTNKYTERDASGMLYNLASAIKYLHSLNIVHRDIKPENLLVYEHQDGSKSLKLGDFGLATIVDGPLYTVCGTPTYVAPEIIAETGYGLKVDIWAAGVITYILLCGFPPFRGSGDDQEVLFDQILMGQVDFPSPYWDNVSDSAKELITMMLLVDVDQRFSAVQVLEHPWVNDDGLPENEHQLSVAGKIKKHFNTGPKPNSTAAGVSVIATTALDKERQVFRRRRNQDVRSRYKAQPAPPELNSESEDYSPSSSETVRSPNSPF
Experiment [10] addresses Casein kinase I isoform delta (Homo sapiens, UniProt P48730). It is filed as functional.
In experiment [11] the target is Cyclin-dependent kinase 5 (Homo sapiens, UniProt Q00535). It is filed as functional.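 Also: CDK5 measured as one member of a kinase profiling panel.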
Cyclin-dependent kinase 5, sequence (Q00535 whole entry): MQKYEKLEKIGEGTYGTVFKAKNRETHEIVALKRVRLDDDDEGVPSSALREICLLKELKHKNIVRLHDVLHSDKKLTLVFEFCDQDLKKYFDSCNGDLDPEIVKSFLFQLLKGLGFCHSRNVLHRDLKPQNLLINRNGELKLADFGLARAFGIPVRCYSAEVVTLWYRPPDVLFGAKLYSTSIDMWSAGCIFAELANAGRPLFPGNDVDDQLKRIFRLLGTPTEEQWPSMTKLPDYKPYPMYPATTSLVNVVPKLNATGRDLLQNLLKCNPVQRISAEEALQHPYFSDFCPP
Experiment [12] deals with Testis-specific serine/threonine-protein kinase 1 (Homo sapiens, UniProt Q9BXA7). It counts as functional.
Testis-specific serine/threonine-protein kinase 1, sequence (Q9BXA7 whole entry): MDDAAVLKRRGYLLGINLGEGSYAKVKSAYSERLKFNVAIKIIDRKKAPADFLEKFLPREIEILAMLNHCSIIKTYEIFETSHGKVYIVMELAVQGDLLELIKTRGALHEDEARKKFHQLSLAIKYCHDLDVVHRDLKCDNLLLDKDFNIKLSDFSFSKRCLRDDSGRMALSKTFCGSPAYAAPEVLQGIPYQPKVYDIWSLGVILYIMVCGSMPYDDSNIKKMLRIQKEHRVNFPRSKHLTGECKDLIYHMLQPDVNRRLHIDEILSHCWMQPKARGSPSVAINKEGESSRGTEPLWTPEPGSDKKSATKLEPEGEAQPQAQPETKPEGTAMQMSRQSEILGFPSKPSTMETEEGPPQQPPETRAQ
Experiment [13] has as its target Cyclin-dependent kinase 9 (Homo sapiens, UniProt P50750). It is filed as functional.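 Also: value from the CDK9 entry of a kinome-spanning kinase panel.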
Experiment [14] deals with Mitogen-activated protein kinase kinase kinase kinase 2 (Homo sapiens, UniProt Q12851). It counts as functional.
The target of experiment [15] is Fibroblast growth factor receptor 1 (Homo sapiens, UniProt P11362). It counts as functional.
Fibroblast growth factor receptor 1, sequence (P11362 whole entry): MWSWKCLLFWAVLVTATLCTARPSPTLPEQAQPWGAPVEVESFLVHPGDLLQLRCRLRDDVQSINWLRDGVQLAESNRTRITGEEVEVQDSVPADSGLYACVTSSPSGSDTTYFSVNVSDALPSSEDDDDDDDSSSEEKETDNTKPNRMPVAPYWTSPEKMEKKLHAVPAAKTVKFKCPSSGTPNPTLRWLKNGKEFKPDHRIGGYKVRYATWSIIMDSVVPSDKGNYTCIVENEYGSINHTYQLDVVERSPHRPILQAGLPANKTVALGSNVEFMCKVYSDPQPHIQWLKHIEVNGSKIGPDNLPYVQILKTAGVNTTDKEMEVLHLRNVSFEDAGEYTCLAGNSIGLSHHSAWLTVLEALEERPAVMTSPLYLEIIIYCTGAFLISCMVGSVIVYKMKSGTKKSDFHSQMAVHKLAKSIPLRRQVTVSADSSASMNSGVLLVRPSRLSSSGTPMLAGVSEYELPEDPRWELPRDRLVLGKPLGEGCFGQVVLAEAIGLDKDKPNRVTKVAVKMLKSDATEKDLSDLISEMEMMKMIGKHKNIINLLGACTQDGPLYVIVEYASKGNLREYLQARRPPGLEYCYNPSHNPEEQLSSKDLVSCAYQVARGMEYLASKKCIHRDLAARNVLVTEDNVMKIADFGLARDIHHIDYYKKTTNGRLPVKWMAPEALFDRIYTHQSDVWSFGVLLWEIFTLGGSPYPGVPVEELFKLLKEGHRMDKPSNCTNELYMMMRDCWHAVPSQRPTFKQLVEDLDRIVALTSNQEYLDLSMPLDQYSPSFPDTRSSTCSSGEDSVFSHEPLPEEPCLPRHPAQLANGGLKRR
In experiment [16] the target is Proto-oncogene tyrosine-protein kinase Src (Homo sapiens, UniProt P12931). It counts as functional.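 Also: SRC entry within a kinome-wide kinase profiling panel.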
In experiment [17] the target is Cyclin-dependent kinase 8 (Homo sapiens, UniProt P49336). Briefly: Navigating the Kinome. Panel member name: CDK8. It counts as functional.
Cyclin-dependent kinase 8, sequence (P49336 whole entry): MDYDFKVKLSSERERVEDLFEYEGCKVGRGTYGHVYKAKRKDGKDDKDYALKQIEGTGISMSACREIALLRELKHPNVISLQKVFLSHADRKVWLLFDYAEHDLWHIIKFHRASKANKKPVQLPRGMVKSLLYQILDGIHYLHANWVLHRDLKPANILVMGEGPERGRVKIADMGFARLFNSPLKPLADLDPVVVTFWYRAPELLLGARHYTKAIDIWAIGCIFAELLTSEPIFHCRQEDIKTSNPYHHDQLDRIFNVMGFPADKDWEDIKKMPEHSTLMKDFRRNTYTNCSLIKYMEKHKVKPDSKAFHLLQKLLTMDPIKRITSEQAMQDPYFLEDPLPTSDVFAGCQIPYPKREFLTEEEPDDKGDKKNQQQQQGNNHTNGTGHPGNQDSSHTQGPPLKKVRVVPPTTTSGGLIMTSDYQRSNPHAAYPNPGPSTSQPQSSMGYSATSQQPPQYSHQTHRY
Experiment [18] addresses Glycogen synthase kinase-3 alpha (Homo sapiens, UniProt P49840). It counts as functional.
Experiment [19] deals with Protein kinase C gamma type (Homo sapiens, UniProt P05129). It counts as functional.
The target of experiment [20] is Serine/threonine-protein kinase Chk1 (Homo sapiens, UniProt O14757). It is filed as functional.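 Also: measured as one member of a kinome-wide kinase profiling panel.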
Experiment [21] concerns the target Protein-tyrosine kinase 6 (Homo sapiens, UniProt Q13882). It counts as functional.

Active and inactive are the calls of the source. Some results are limits rather than exact numbers.

Cyclin-dependent kinase 9, sequence (P50750 whole entry): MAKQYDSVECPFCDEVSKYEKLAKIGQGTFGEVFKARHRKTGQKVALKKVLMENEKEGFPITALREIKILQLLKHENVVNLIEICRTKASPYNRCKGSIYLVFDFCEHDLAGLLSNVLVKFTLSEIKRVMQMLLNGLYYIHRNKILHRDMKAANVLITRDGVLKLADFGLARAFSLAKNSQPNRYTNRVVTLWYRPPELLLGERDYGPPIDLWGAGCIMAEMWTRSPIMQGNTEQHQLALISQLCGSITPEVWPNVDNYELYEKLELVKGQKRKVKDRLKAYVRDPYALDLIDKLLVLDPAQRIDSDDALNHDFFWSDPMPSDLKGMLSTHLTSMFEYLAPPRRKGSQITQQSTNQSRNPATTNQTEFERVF
Glycogen synthase kinase-3 alpha, sequence (P49840 whole entry): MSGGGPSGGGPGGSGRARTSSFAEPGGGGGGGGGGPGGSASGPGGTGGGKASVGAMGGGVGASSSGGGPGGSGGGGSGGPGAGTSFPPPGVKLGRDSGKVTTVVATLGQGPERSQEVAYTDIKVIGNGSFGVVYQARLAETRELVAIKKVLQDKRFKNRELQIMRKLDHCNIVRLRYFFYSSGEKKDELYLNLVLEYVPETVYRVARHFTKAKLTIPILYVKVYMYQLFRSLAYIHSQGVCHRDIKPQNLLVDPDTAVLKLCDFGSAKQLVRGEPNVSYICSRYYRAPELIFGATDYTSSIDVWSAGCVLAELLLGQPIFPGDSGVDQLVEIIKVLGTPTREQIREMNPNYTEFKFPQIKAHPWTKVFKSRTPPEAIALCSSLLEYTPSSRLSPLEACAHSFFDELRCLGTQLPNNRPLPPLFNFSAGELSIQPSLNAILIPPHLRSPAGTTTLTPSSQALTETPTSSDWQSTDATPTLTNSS

A word on the AC50: it is the concentration giving half of the maximal activity seen. For `O=C1C=C(N2CCCCC2)c2ccccc2C1=O`, the AC50 in the experiment with INS1 is 4980 nM (active).
The term IC50 denotes the point on the concentration scale where inhibition reaches its midpoint. On to `O=C(O)C1Nc2c(O)cc(Cl)c([N+](=O)[O-])c2C2C=CCC12` (configuration not stated), for which the IC50 in experiment [1] was 3840 nM (active); in experiment [2], 5210 nM (active). Also, the AC50 at Keap1/Nrf2 was > 52000 nM (inactive).
On to `Clc1ccc2nc(-c3ccc(Br)s3)cn2c1`, for which the IC50 at Protein skinhead-1 was 57500 nM (inactive).
The term EC50 denotes the concentration that produces a half-maximal response. A high value points to weaker potency. Regarding `O=C(CCc1ccccc1)NNc1cc(N2CCCCC2)nc(N2CCCCC2)n1`, the IC50 in experiment [3] was 605 nM (active). Also, in [4], the EC50 was > 60000 nM (not active).
Turning to `Oc1ccc(N=Nc2c(O)ccc3ccccc23)cc1`, the IC50 in experiment [5] was > 118000 nM (inactive).
Broadly, the Ki is a dissociation constant, usually derived from enzyme kinetics or from competition with a known ligand. Broadly, the pKi is −log10 of the Ki, conventionally taken in molar units. Lower therefore signals a high Ki. As for `Cc1n[nH]c2ccc(-c3cncc(OCC(N)Cc4cccc(Cl)c4)c3)cc12` (configuration not stated), the Ki in experiment [6] was > 2510 nM (inactive); in experiment [7], 79.4 nM (active); in experiment [8] it was 79.4 nM (active); in experiment [9], 3160 nM (active); in experiment [10], 31.6 nM (active); in experiment [11], 12.6 nM (active). The Ki is 100 nM (active) in experiment [12]; 63.1 nM (active) in [13]; 63.1 nM (active) in experiment [14]; 5010 nM (active) in [15]; > 2000 nM (inactive) in [16]; 1.58 nM (active) in experiment [17]. The Ki was 50.1 nM (active) in experiment [18], 6.31 nM (active) in experiment [19], 6310 nM (active) in [20] and > 2510 nM (inactive) in experiment [21]. In addition, the values for the pKi in experiment [11], in [13] and in [17] were 7.9, 7.2 and 8.8, respectively.
